ChEMBL document CHEMBL1135926, “Structure-based design of novel potent nonpeptide thrombin inhibitors” (J Med Chem, 2002)

Experiments:
[1] = molecular target: Prothrombin (Homo sapiens, UniProt P00734); test: Inhibition of human thrombin by chromogenic assay
[2] = molecular target: Tissue-type plasminogen activator (Homo sapiens, UniProt P00750); test: Inhibitory constant (Ki) was determined against human Tissue plasminogen activator (tissue plasminogen activator)
[3] = molecular target: Plasminogen (Homo sapiens, UniProt P00747); test: Inhibitory constant (Ki) was determined against human plasmin
[4] = molecular target: Trypsin (Homo sapiens, UniProt P07477+P07478+P35030); test: Inhibitory constant (Ki) was determined against human trypsin; type: protein assay
[5] = organism: Homo sapiens; test: Effective dose was determined against human plasma using PTT reagent; type: functional
[6] = molecular target: Vitamin K-dependent protein C (Homo sapiens, UniProt P04070); test: Inhibitory constant (Ki) was determined against human Activated protein C
Vitamin K-dependent protein C, sequence (P04070 43-197 limits assumed): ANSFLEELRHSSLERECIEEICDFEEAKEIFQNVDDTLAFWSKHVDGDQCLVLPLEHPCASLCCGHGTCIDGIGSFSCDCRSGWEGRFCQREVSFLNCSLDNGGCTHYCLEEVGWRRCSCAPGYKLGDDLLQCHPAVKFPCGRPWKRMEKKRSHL
Vitamin K-dependent protein C, sequence (P04070 212-461 limits assumed): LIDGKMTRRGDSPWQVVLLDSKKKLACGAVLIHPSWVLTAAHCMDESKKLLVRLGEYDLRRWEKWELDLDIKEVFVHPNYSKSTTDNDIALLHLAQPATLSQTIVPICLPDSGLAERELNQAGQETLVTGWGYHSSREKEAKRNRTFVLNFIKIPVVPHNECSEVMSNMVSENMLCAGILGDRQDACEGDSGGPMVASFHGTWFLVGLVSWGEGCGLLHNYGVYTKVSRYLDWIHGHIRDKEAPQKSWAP

Tissue-type plasminogen activator, sequence (P00750 whole entry): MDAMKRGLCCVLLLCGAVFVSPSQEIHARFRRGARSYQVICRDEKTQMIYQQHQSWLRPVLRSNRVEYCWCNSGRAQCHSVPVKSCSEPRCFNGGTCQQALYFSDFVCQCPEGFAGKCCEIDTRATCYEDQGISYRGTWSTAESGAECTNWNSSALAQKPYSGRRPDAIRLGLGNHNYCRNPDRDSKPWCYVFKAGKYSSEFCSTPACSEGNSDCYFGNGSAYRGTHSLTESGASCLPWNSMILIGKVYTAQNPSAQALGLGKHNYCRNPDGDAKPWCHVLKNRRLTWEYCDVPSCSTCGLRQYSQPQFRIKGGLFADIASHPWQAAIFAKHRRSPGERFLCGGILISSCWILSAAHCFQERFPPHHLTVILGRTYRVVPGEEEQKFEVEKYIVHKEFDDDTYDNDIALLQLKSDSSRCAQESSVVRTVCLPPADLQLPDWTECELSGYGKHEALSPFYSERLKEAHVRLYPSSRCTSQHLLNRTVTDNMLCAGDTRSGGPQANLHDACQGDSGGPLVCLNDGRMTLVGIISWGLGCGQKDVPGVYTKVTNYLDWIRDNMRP
Plasminogen, sequence (P00747 97-580 limits assumed): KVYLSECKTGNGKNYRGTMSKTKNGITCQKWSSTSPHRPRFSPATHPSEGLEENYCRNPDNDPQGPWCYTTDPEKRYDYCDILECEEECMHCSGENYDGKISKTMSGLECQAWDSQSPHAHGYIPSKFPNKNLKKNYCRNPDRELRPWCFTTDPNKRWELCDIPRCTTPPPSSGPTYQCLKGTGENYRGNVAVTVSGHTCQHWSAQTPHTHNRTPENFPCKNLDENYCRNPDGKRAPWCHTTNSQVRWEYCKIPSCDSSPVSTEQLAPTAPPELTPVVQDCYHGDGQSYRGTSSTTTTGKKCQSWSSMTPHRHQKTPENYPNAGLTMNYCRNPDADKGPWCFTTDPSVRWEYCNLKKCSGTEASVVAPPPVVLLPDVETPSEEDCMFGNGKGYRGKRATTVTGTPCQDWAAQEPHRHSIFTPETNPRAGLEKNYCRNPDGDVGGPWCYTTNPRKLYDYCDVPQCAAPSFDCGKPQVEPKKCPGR
Plasminogen, sequence (P00747 581-810 limits assumed): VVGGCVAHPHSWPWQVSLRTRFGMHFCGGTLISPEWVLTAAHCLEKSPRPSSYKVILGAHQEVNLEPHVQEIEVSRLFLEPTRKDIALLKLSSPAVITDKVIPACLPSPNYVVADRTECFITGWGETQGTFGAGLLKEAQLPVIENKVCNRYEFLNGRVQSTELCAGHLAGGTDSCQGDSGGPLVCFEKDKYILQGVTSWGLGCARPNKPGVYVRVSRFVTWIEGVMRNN

Row | Compound | IC50 [1] [nM] | also measured
1 | Cn1c(CCc2ccc(C(=N)N)cc2)nc2cc(C(=O)N(CC(=O)O)c3ccccc3)ccc21 | 54 | –
2 | CN(c1ccc2c(c1)nc(Cc1ccc(C(=N)N)cc1)n2C)S(=O)(=O)c1ccccc1 | 1300 | –
3 | CCCn1c(Cc2ccc(C(=N)N)cc2)nc2cc(NS(=O)(=O)c3ccccc3)ccc21 | 4000 | –
4 | Cn1c(COc2ccc(C(=N)N)cc2)nc2cc(N(CC(=O)O)S(=O)(=O)c3cccc4cccnc34)ccc21 | 58 | –
5 | Cn1c(CNc2ccc(C(=N)N)cc2)nc2cc(C(=O)N(CCC(=O)O)c3ccccc3)ccc21 | 5.4 | –
6 | Cn1c(CNc2ccc(C(=N)N)cc2)nc2cc(N(CC(=O)O)S(=O)(=O)c3cccc4cccnc34)ccc21 | 11 | –
7 | Cn1c(Cc2ccc(C(=N)N)cc2)nc2cc(NS(=O)(=O)c3cccc4cnccc34)ccc21 | 510 | –
8 | Cn1c(Cc2ccc(C(=N)N)cc2)nc2cc(NS(=O)(=O)c3cc(C(F)(F)F)cc(C(F)(F)F)c3)ccc21 | > 100000 | –
9 | COc1ccc(OC)c(S(=O)(=O)Nc2ccc3c(c2)nc(Cc2ccc(C(=N)N)cc2)n3C)c1 | 1800 | –
10 | Cn1c(Cc2ccc(C(=N)N)cc2)nc2cc(NS(=O)(=O)c3cccc4cccnc34)ccc21 | 260 | –
11 | Cn1c(Cc2ccc(C(=N)N)cc2)nc2cc(NS(=O)(=O)c3cccc4ccccc34)ccc21 | 600 | –
12 | Cn1c(Cc2ccc(C(=N)N)cc2)nc2cc(NS(=O)(=O)c3ccc4ccccc4c3)ccc21 | 24000 | –
13 | N=C(N)c1ccc(Cc2nc3cc(NS(=O)(=O)c4ccccc4)ccc3[nH]2)cc1 | 19000 | –
14 | Cn1c(CCc2ccc(C(=N)N)cc2)nc2cc(N(CC(=O)O)S(=O)(=O)c3cccc4cccnc34)ccc21 | 32 | –
15 | Cn1c(Cc2ccc(C(=N)N)cc2)nc2cc(N(CCCC(=O)O)S(=O)(=O)c3cccc4cccnc34)ccc21 | 130 | –
16 | Cn1c(CNc2ccc(C(=N)N)cc2)nc2cc(C(=O)N(CCCC(=O)O)c3ccccc3)ccc21 | 10 | –
17 | CCn1c(Cc2ccc(C(=N)N)cc2)nc2cc(NS(=O)(=O)c3ccccc3)ccc21 | 2400 | –
18 | Cn1c(COc2ccc(C(=N)N)cc2)nc2cc(C(=O)N(CC(=O)O)c3ccccc3)ccc21 | 330 | –
19 | Cn1c(Cc2ccc(C(=N)N)cc2)nc2cc(NS(=O)(=O)c3cccnc3)ccc21 | 1600 | –
20 | Cn1c(Cc2ccc(C(=N)N)cc2)nc2cc(N(CC(=O)O)S(=O)(=O)c3cccc4cccnc34)ccc21 | 120 | –
21 | Cn1c(CNc2ccc(C(=N)N)cc2)nc2cc(C(=O)N(CC(=O)O)c3ccccc3)ccc21 | 10 | –
22 | Cn1c(CNc2ccc(C(=N)N)cc2)nc2cc(C(=O)N(CCC(=O)O)c3ccccn3)ccc21 [DABIGATRAN] | – | Ki [2]: 45400 nM; Ki [3]: 1690 nM; Ki [4]: 50.3 nM; ED2 [5]: 0.23 µM; Ki [6]: 20900 nM
